From patent US5250554A, “Benzimidazole derivatives useful as angiotensin II inhibitors” (Takeda Chemical Industries, Ltd., priority 1989, dated 1993)
Structures can show the parent of a compound that is named as a salt.

Tests used:
[1] = biological target: T1, A-II receptor (Bos taurus, UniProt P25104); assay: Inhibition of binding of angiotensin-II to angiotensin receptor (radioreceptor assay, 125I-A-II); parameters: species or system bovine (membrane fraction of bovine adrenal cortex); conditions: bovine adrenal cortex membrane, 125I-A-II, 1 h room temperature; for inhibition at 10 µM: read-out: Radioreceptor assay, inhibition of A-II binding, 1 × 10^-5 M; for inhibition at 1 µM: read-out: Radioreceptor assay, inhibition of A-II binding, 1 × 10^-6 M
T1 construct: An A-II receptor was prepared from the membrane fraction of bovine adrenal cortex; from tissue; host or cells: bovine adrenal cortex, membrane fraction
T1 sequence (P25104 1-359): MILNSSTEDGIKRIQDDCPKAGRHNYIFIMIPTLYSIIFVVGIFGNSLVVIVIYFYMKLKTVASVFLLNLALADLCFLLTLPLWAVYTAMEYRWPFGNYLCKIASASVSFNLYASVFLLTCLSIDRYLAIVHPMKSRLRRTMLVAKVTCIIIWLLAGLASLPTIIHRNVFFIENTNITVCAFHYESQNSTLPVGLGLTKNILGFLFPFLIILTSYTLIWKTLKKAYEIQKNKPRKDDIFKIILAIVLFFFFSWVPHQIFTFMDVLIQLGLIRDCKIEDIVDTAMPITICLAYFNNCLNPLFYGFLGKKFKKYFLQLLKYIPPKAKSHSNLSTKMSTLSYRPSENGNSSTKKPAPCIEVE
Procedure: Inhibition of binding of angiotensin-II to angiotensin receptor
An A-II receptor was prepared from the membrane fraction of bovine adrenal cortex.

[2] = system: pressor action of A-II; assay: Inhibitory effect on pressor action of A-II (oral drug, i.v. A-II 100 ng/kg); assay type: in vivo, Jcl:SD rats (9 week old, male); conditions: rats, A-II 100 ng/kg i.v.; for inhibition in vivo at 3 mg/kg / inhibition in vivo at 30 mg/kg: Rattus norvegicus, po; for inhibition in vivo at 3 mg/kg: read-out: Pressor response to A II (p.o.), 3 mg/kg (percent inhibition); for inhibition in vivo at 30 mg/kg: read-out: Pressor response to A II (p.o.), 30 mg/kg (percent inhibition)
From the text: Inhibitory effect of the compound of this invention on pressor action of A-II
Jcl:SD rats (9 week old, male) were used. On the day prior to that of the experiment, these animals were applied with cannulation into the femoral artery and vein under anesthesia with pentobarbital Na. The animals were fasted but allowed free access to drinking water until the experiment was started. On the day of conducting the experiment, the artery cannula was connected with a blood-pressure transducer, and the average blood pressure was recorded by means of polygraph. […] The drugs were orally administered, and then, at each point of the measurement, A-II was administered intravenously, and the pressor action was similarly measured. By comparing the pressor action before and after administration of the drug, the percent inhibition by the drug on A-II-induced pressor action was evaluated.

Structure (SMILES) | inhibition at 10 µM ([1]; 1 × 10^-5 M) [%] | inhibition at 1 µM ([1]; 1 × 10^-6 M) [%] | Radioreceptor assay, inhibition of A-II binding, 1 × 10^-5 M ([1]; 1 × 10^-5 M) | Radioreceptor assay, inhibition of A-II binding, 1 × 10^-6 M ([1]; 1 × 10^-6 M) | inhibition in vivo at 3 mg/kg ([2]; 3 mg/kg p.o.) [%] | inhibition in vivo at 30 mg/kg ([2]; 30 mg/kg p.o.) [%] | Pressor response to A II (p.o.), 3 mg/kg (percent inhibition) ([2]; 3 mg/kg p.o.) | Pressor response to A II (p.o.), 30 mg/kg (percent inhibition) ([2]; 30 mg/kg p.o.)
CCCc1nc2cccc(C(=O)O)c2n1Cc1ccc(-c2ccccc2-c2nn[nH]n2)cc1 [Working Example 7, 2-Propyl-1-[[2'-(1H-tetrazol-5-yl)bichenyl-4-yl]methyl]benzimidazole-7-carboxylic acid] | 95 | 79 | – | – | > 70 | > 70 | – | –
CCCCc1nc2ccccc2n1Cc1ccc(-c2ccccc2C(=O)O)cc1 [compound 26, 2-[4-(2-Butylbenzimidazol-1-yl)methylphenyl]benzoic acid, reference compound] | 87 | 48 | – | – | – | – | – | –
CCCCc1nc2cc(C)cc(C(=O)OC)c2n1Cc1ccc(-c2ccccc2-c2nn[nH]n2)cc1 [Working Example 9] | 92 | 45 | – | – | 50 to 70 | – | – | –
CCCCc1nc2cccc(CO)c2n1Cc1ccc(-c2ccccc2-c2nnn[nH]2)cc1 [Working Example 16, 2-Butyl-7-hydroxymethyl-1-[[2'-(1H-tetrazol-5-yl)biphenyl-4-yl]methyl]benzimidazole] | 90 | 67 | – | – | – | > 70 | – | –
CCCc1nc2cccc(C(=O)OC)c2n1Cc1ccc(-c2ccccc2-c2nnn[nH]2)cc1 [Working Example 31, Methyl 2-propyl-1-[[2'-(1H-tetrazol-5-yl)biphenyl-4-yl)methyl]benzimidazole-7-carboxylate] | 92 | 78 | – | – | > 70 | > 70 | – | –
CCCCc1nc2cccc(C(=O)O)c2n1Cc1ccc(-c2ccccc2-c2nn[nH]n2)cc1 [Working Example 29, 2-Butyl-1-[[2'-(1H-tetrazol-5-yl)biphenyl-4-yl]methyl]benzimidazole-7-carboxylic acid 2.potassium salt] | – | – | 87 | 60 | – | – | +++ (+++ ≥70%) | +++ (+++ ≥70%)
CSCc1nc2cccc(C(=O)O)c2n1Cc1ccc(-c2ccccc2-c2nnn[nH]2)cc1 [Working Example 51, 2-Methylthiomethyl-1-[[2'-(1H-tetrazol-5-yl)biphenyl-4-yl]methyl]benzimidazole-7-carboxylic acid] | 76 | 45 | – | – | > 70 | > 70 | – | –
CCCCc1nc2cc(Cl)cc(C(=O)OC)c2n1Cc1ccc(-c2ccccc2-c2nnn[nH]2)cc1 [Working Example 12, Methyl 2-butyl-5-chloro-1-[[2'-(1H-tetrazol-5-yl)biphenyl-4-yl]methyl]benzimidazole-7-carboxylate] | 91 | 65 | – | – | 50 to 70 | > 70 | – | –
CCCCc1nc2ccc(C(=O)O)cc2n1Cc1ccc(-c2ccccc2-c2nn[nH]n2)cc1 [compound 50, reference compound] | 53 | 7 | – | – | < 30 | < 30 | – | –
CCCCc1nc2cccc(C(=O)OCC)c2n1Cc1ccc(-c2ccccc2-c2nnn[nH]2)cc1 [Working Example 14, Ethyl 2-butyl-1-[[2'-(1H-tetrazol-5-yl)biphenyl-4-yl]methyl]benzimidazole-7-carboxylate] | 82 | 50 | – | – | 50 to 70 | > 70 | – | –
CCCCc1nc2cccc(C(=O)O)c2n1Cc1ccc(-c2ccccc2-c2nnn[nH]2)cc1 [Working Example 1, 2-Butyl-1-[[2'-(1H-tetrazol-5-yl)biphenyl-4-yl]methyl]benzimidazole-7-carboxylic acid] | 95 | 78 | – | – | > 70 | > 70 | – | –
CCCCc1nc2cc(C(=O)O)ccc2n1Cc1ccc(-c2ccccc2-c2nnn[nH]2)cc1 [compound 44, 2-Butyl-1-[[2'-(1H-tetrazol-5-yl)biphenyl-4-yl]methyl]benzimidazole-5-carboxylic acid, reference compound] | 66 | 13 | – | – | < 30 | – | – | –
CCCCc1nc2cc(C)cc(C(=O)O)c2n1Cc1ccc(-c2ccccc2-c2nn[nH]n2)cc1 [Working Example 10, 2-Butyl-5-methyl-1-[[2,-(1H-tetrazol-5-yl)biphenyl-4-yl]methyl]benzimidazole-7-carboxylic acid] | 90 | 40 | – | – | > 70 | > 70 | – | –
CCCCc1nc2cccc(C(=O)OC)c2n1Cc1ccc(-c2ccccc2-c2nnn[nH]2)cc1 [Working Example 34, Methyl 2-butyl-1-[[2'-(1H-tetrazol-5-yl)biphenyl-4-yl]methyl]benzimidazole-7-carboxylate] | 90 | 66 | – | – | > 70 | > 70 | – | –

Second part, led by results:

inhibition at 10 µM ([1]; 1 × 10^-5 M) [%] | inhibition at 1 µM ([1]; 1 × 10^-6 M) [%] | Radioreceptor assay, inhibition of A-II binding, 1 × 10^-5 M ([1]; 1 × 10^-5 M) | Radioreceptor assay, inhibition of A-II binding, 1 × 10^-6 M ([1]; 1 × 10^-6 M) | Structure (SMILES) | inhibition in vivo at 3 mg/kg ([2]; 3 mg/kg p.o.) [%] | inhibition in vivo at 30 mg/kg ([2]; 30 mg/kg p.o.) [%] | Pressor response to A II (p.o.), 3 mg/kg (percent inhibition) ([2]; 3 mg/kg p.o.) | Pressor response to A II (p.o.), 30 mg/kg (percent inhibition) ([2]; 30 mg/kg p.o.)
98 | 88 | – | – | CC(C)c1nc2cccc(C(=O)O)c2n1Cc1ccc(-c2ccccc2-c2nnn[nH]2)cc1 [Working Example 28, 2-Isopropyl-1-[[2'-(1H-tetrazol-5-yl)biphenyl-4-yl]methyl]benzimidazole-7-carboxylic acid] | 30 to 50 | – | – | –
73 | 35 | – | – | COCc1nc2cccc(C(=O)O)c2n1Cc1ccc(-c2ccccc2-c2nnn[nH]2)cc1 [Working Example 49, 2-Methoxymethyl-1-[[2'-(1H-tetrazol-5-yl)biphenyl-4-yl]methyl]benzimidazole-7-carboxylic acid] | > 70 | > 70 | – | –
91 | 71 | – | – | CCCCc1nc2cccc(C(=O)O)c2n1Cc1ccc(-c2ccccc2-c2nn[nH]n2)cc1 [Working Example 4, 2-Butyl-1-[[2'-(1H-tetrazol-5-Yl)biphenyl-4-yl]methyl]benzimidazole-7-carboxylic acid 2-sodium salt] | > 70 | > 70 | – | –
40 | 1 | – | – | CCCCc1nc2c(C(N)=O)cccc2n1Cc1ccc(-c2ccccc2-c2nnn[nH]2)cc1 [compound 30, 2-Butyl-1-[[2'-(1H-tetrazol-5-yl)biphenyl-4-yl]methyl]benzimidazole-4-carboxamide, reference compound] | < 30 | < 30 | – | –
97 | 83 | – | – | CCCCc1nc2cccc(C(=O)OCc3oc(=O)oc3C)c2n1Cc1ccc(-c2ccccc2-c2nn[nH]n2)cc1 [Working Example 39] | > 70 | > 70 | – | –
79 | 22 | – | – | CCCCc1nc2ccc(Cl)cc2n1Cc1ccc(-c2ccccc2-c2nn[nH]n2)cc1 [compound 21, 2-Butyl-6-chloro-1-[[2,-(1H-tetrazol-5-yl)biphenyl-4-yl]methyl]benzimidazol, reference compound] | – | < 30 | – | –
95 | 86 | – | – | CCCCc1nc2cccc(C(=O)OCOC(=O)C(C)(C)C)c2n1Cc1ccc(-c2ccccc2-c2nn[nH]n2)cc1 [Working Example 36] | > 70 | > 70 | – | –
96 | 91 | – | – | CCc1nc2cccc(C(=O)O)c2n1Cc1ccc(-c2ccccc2-c2nn[nH]n2)cc1 [Working Example 27] | > 70 | > 70 | – | –
88 | 47 | – | – | CCCCc1nc2ccc(OC)cc2n1Cc1ccc(-c2ccccc2-c2nn[nH]n2)cc1 [compound 19, reference compound] | < 30 | – | – | –
93 | 75 | – | – | CCCCc1nc2cccc(CC(=O)OCC)c2n1Cc1ccc(-c2ccccc2-c2nn[nH]n2)cc1 [Working Example 17, Ethyl [[2-butyl-1-[2'-(1H-tetrazol-5-Yl)biphenyl-4-yl]methyl]benzimidazol-7-yl]acetate] | 30 to 50 | – | – | –
